Patent US8394991B2, “Phenoxy substituted phenylamidine derivatives and their use as fungicides” (Bayer Cropscience AG, priority 2007, dated 2013)

Key:
[1] = test system: Erysiphe graminis f. sp. Hordei; assay: Erysiphe test (barley) / protective; type: in vivo; conditions: Blumeria graminis, 168 h; barley plants, protective spray, 500 ppm active compound, evaluation 7 days after inoculation; read-out: efficacy
Method: Solvent: 49 parts by weight of N,N-dimethylformamide
Emulsifier: 1 part by weight of alkylaryl polyglycol ether
To produce a suitable preparation of active compound, 1 part by weight of N-ethyl-N-methyl-N′-[4-phenoxy-2,5-xylyl]formamidine (according to formula I-a) is mixed with the stated amounts of solvent and emulsifier, and the concentrate is diluted with water to the desired concentration.
To test for protective activity, young cereal plants are sprayed with the active compound preparation at the stated application rate. 1 day after the treatment, the plants are inoculated with spores of Erysiphe graminis f. sp. Hordei. The plants are then placed in a greenhouse at 70% relative atmospheric humidity and a temperature of 18° C.
Evaluation is carried out 7 days after the inoculation. 0% means an efficacy which corresponds to that of the control, whereas an efficacy of 100% means that no infection is observed.

[2] = logP (acidic, pH 2.3)

Molecule | pest or weed control at 500 ppm [1] | logP ([2]; pH 2.3) | log P (pH2.3) ([2]; pH 2.3) | logP acidic ([2]; acidic)
CCN(C)C=Nc1cc(C)c(Oc2cccc(C(C)(CC)OC)c2)cc1C (stereo not shown) [Compound 8, N-ethyl-N′-{4-[3-(1-methoxy-1-methylpropyl)phenoxy]-2,5-dimethylphenyl}-N-methylimidoformamide] | ≥ 70% | – | – | –
CCN(C)C=Nc1cc(C)c(Oc2cccc(C3CC3)c2)cc1C [Compound 64, N′-[4-(3-cyclopropylphenoxy)-2,5-dimethylphenyl]-N-ethyl-N-methylimido-formamide] | ≥ 70% | 2.35 | – | –
Cc1cc(N)c(Cl)cc1Oc1cccc(C(C)C)c1 [4-(3-Isopropylphenoxy)-2-chloro-5-methylaniline] | – | 4.68 | – | –
CCN(C)C=Nc1cc(C)c(Oc2cccc(C(C)(C)OC)c2)cc1C [Compound 37, N-ethyl-N′-{4-[3-(1-methoxy-1-methylethyl)phenoxy]-2,5-dimethylphenyl}-N-methylimidoformamide] | ≥ 70% | 2.14 | – | –
4-(3-Isopropylphenoxy)-2-chloro-5-methylnitrobenzene | – | – | 5.54 | –
CCN(C)C=Nc1cc(C)c(Oc2cccc(CCCO)c2)cc1C [Compound 57-1, N-ethyl-N′-{4-[3-(3-hydroxypropyl)phenoxy]-2,5-dimethylphenyl}-N-methylimidoformamide] | – | 1.56 | – | –
Cc1cc(/N=C/N2CCCCC2C)c(Cl)cc1Oc1cccc(C(C)C)c1 (stereo not shown) [Compound 61-4, 2-chloro-4-(3-isopropylphenoxy)-5-methyl-N-[(1E)-(2-methylpiperidin-1-yl)methylene]aniline] | – | 2.67 | – | –
Cc1cc(/N=C/N2CCCCC2)c(Cl)cc1Oc1cccc(C(C)C)c1 [Compound 61-3, 2-chloro-4-(3-isopropylphenoxy)-5-methyl-N-[(1E)-piperidin-1-ylmethylene]aniline] | – | 2.62 | – | –
COC(C)(C)c1cccc(Oc2cc(C)c(/N=C/N3CC(C)OC(C)C3)cc2C)c1 (stereo not shown) [Compound 65-2, N-[(1E)-(2,6-dimethyl-morpholin-4-yl)methylene]-4-[3-(1-methoxy-1-methylethyl)phenoxy]-2,5-dimethylaniline] | – | 2.24 | – | –
CCCN(C)C=Nc1cc(C)c(Oc2cccc(C(C)(C)OC)c2)cc1C [Compound 65-1, N′-{4-[3-(1-methoxy-1-methylethyl)-phenoxy]-2,5-dimethylphenyl}-N-methyl-N-propyl imidoformamide] | – | – | – | 2.50
CCN(C)C=Nc1cc(C)c(Oc2cccc(CC(C)(C)C)c2)cc1C [Compound 62, N′-{4-[3-(2,2-dimethylpropyl)phenoxy]-2,5-dimethylphenyl}-N-ethyl-N-methylimidoformamide] | ≥ 70% | 2.74 | – | –
Cc1cc(Oc2cccc(CCCO)c2)c(C)cc1N=CN(C)C(C)C [Compound 57-2, N′-{4-[3-(3-hydroxypropyl)phenoxy]-2,5-dimethylphenyl}-N-isopropyl-N-methylimidoformamide] | ≥ 70% | 1.67 | – | –
CCN(C)C=Nc1cc(C)c(Oc2cccc(C[Si](C)(C)C)c2)cc1C [Compound 63, N′-(2,5-dimethyl-4-{3-[(trimethylsilyl)methyl]-phenoxy}phenyl)-N-ethyl-N-methylimido-formamide] | ≥ 70% | 2.93 | – | –
Cc1cc(N=CN(C)C(C)C)c(Cl)cc1Oc1cccc(C(C)C)c1 [Compound 61-2, N′-[2-chloro-4-(3-isopropylphenoxy)-5-methylphenyl]-N-isopropyl-N-methylimidoformamide] | ≥ 70% | 2.54 | – | –
CCN(C)C=Nc1cc(C)c(Oc2cccc(C(C)C)c2)cc1Cl [Compound 61-1, N′-[2-chloro-4-(3-isopropylphenoxy)-5-methylphenyl]-N-ethyl-N-methylimidoformamide] | ≥ 70% | 2.38 | – | –
